The record followed here is ChEMBL document CHEMBL1240351, “Molecular epidemiology of metallo-beta-lactamase-producing Pseudomonas aeruginosa isolates from Norway and Sweden shows import of international clones and local clonal expansion” (2010).

The structures appear in SMILES notation. Values after ≈ are worked out from the molar mass of the structure shown. Where only a bound is given, the exact number is not on record here.

Common to all, as to assay type: functional
Experiment [1] concerns Pseudomonas aeruginosa. The experiment in a line: Antimicrobial activity against Pseudomonas aeruginosa isolate U9-19005 producing metallo-beta-lactamase VIM2 by Etest.
For experiment [2], the system named is Pseudomonas aeruginosa. Briefly: Antimicrobial activity against Pseudomonas aeruginosa isolate PA66 producing metallo-beta-lactamase VIM4 by Etest.
In experiment [3] the test system is Pseudomonas aeruginosa. The experiment in a line: Antimicrobial activity against Pseudomonas aeruginosa isolate AK5493 producing metallo-beta-lactamase VIM2 by Etest.
Experiment [4] has as its system Pseudomonas aeruginosa. Briefly: Antimicrobial activity against Pseudomonas aeruginosa isolate B4-25753 producing metallo-beta-lactamase VIM2 by Etest.
Experiment [5] concerns Pseudomonas aeruginosa. The experiment in a line: Antimicrobial activity against Pseudomonas aeruginosa isolate K34-73 producing metallo-beta-lactamase VIM4 by Etest.
In experiment [6] the test system is Pseudomonas aeruginosa. Briefly: Antimicrobial activity against Pseudomonas aeruginosa isolate K34-7 producing metallo-beta-lactamase VIM2 by Etest.
Experiment [7] concerns Pseudomonas aeruginosa. The experiment in a line: Antimicrobial activity against Pseudomonas aeruginosa isolate BU-20287 producing metallo-beta-lactamase VIM2 by Etest.
In experiment [8] the test system is Pseudomonas aeruginosa. Briefly: Antimicrobial activity against Pseudomonas aeruginosa isolate BU-43038 producing metallo-beta-lactamase VIM2 by Etest.
Experiment [9] deals with Pseudomonas aeruginosa. Briefly: Antimicrobial activity against Pseudomonas aeruginosa isolate BU-36178 producing metallo-beta-lactamase VIM2 by Etest.
The subject of experiment [10] is Pseudomonas aeruginosa. The experiment in a line: Antimicrobial activity against Pseudomonas aeruginosa isolate BNL-1681 producing metallo-beta-lactamase VIM2 by Etest.
Experiment [11] concerns Pseudomonas aeruginosa. The experiment in a line: Antimicrobial activity against Pseudomonas aeruginosa isolate OS-210 producing metallo-beta-lactamase VIM2 by Etest.
Experiment [12] deals with Pseudomonas aeruginosa. Briefly: Antimicrobial activity against Pseudomonas aeruginosa isolate K44-24 producing metallo-beta-lactamase IMP14 by Etest.
Experiment [13] relates to Pseudomonas aeruginosa. The experiment in a line: Antimicrobial activity against Pseudomonas aeruginosa isolate K45-32 producing metallo-beta-lactamase VIM2 by Etest.

Usually MIC stands for the least concentration at which growth counts as inhibited. The low end stands for inhibition by little substance, the high end for a need for much substance. As for `CO/N=C(\C(=O)N[C@@H]1C(=O)N2C(C(=O)[O-])=C(C[N+]3(C)CCCC3)CS[C@H]12)c1csc(N)n1` [CEFEPIME], the MIC in the experiment on Pseudomonas aeruginosa [1], in the experiment on Pseudomonas aeruginosa [2], against Pseudomonas aeruginosa [3], with Pseudomonas aeruginosa [4], in the experiment on Pseudomonas aeruginosa [5] and in the experiment with Pseudomonas aeruginosa [6] was 32 mg/L (≈ 66.6 µM) each time. Further, the MIC against Pseudomonas aeruginosa [7], against Pseudomonas aeruginosa [8], against Pseudomonas aeruginosa [9], in the experiment with Pseudomonas aeruginosa [10], with Pseudomonas aeruginosa [11] and against Pseudomonas aeruginosa [12] was 32 mg/L (≈ 66.6 µM) throughout. Moreover, the MIC against Pseudomonas aeruginosa [13] stood at 32 mg/L (≈ 66.6 µM).
Regarding `NC[C@H]1O[C@H](O[C@H]2[C@H](O)[C@@H](O[C@H]3O[C@H](CO)[C@@H](O)[C@H](N)[C@H]3O)[C@H](N)C[C@@H]2N)[C@H](N)C[C@@H]1O` [TOBRAMYCIN], the MIC against Pseudomonas aeruginosa [1], against Pseudomonas aeruginosa [2], in the experiment with Pseudomonas aeruginosa [3], in the experiment with Pseudomonas aeruginosa [4], in the experiment with Pseudomonas aeruginosa [5] and in the experiment on Pseudomonas aeruginosa [6] was 32 mg/L (≈ 68.4 µM) each time. Besides, the MIC against Pseudomonas aeruginosa [7], against Pseudomonas aeruginosa [8], against Pseudomonas aeruginosa [9], with Pseudomonas aeruginosa [10], against Pseudomonas aeruginosa [11] and against Pseudomonas aeruginosa [12] was 32 mg/L (≈ 68.4 µM) throughout. The compound also gave an MIC in the experiment on Pseudomonas aeruginosa [13] of 32 mg/L (≈ 68.4 µM).
With `O=C(O)C1=CC[C@@H]2CC(=O)N12` [CARBAPENEM], the MIC against Pseudomonas aeruginosa [1], against Pseudomonas aeruginosa [2], against Pseudomonas aeruginosa [3], against Pseudomonas aeruginosa [4], in the experiment with Pseudomonas aeruginosa [5] and in the experiment on Pseudomonas aeruginosa [6] was over 32 mg/L in each case. Moreover, the MIC in the experiment on Pseudomonas aeruginosa [7], in the experiment on Pseudomonas aeruginosa [8], against Pseudomonas aeruginosa [9], against Pseudomonas aeruginosa [10], in the experiment on Pseudomonas aeruginosa [11] and against Pseudomonas aeruginosa [12] was over 32 mg/L throughout. The compound further yielded a minimal inhibitory concentration (MIC) against Pseudomonas aeruginosa [13] of over 32 mg/L.
Consider `O=C(O)c1cn(C2CC2)c2cc(N3CCNCC3)c(F)cc2c1=O` [CIPROFLOXACIN], for which the MIC in the experiment with Pseudomonas aeruginosa [1], in the experiment with Pseudomonas aeruginosa [2], against Pseudomonas aeruginosa [3], in the experiment on Pseudomonas aeruginosa [4], with Pseudomonas aeruginosa [5] and against Pseudomonas aeruginosa [6] was 16 mg/L (≈ 48.3 µM) throughout. In addition, the MIC against Pseudomonas aeruginosa [7], against Pseudomonas aeruginosa [8], against Pseudomonas aeruginosa [9], against Pseudomonas aeruginosa [10], in the experiment on Pseudomonas aeruginosa [11] and in the experiment on Pseudomonas aeruginosa [12] was 16 mg/L (≈ 48.3 µM) in each case. Moreover, 16 mg/L (≈ 48.3 µM) was the least that counted as inhibitory in the experiment with Pseudomonas aeruginosa [13] (MIC).
Take `NCC[C@H](O)C(=O)N[C@@H]1C[C@H](N)[C@@H](O[C@H]2O[C@H](CN)[C@@H](O)[C@H](O)[C@H]2O)[C@H](O)[C@H]1O[C@H]1O[C@H](CO)[C@@H](O)[C@H](N)[C@H]1O` [AMIKACIN]: the MIC against Pseudomonas aeruginosa [1], against Pseudomonas aeruginosa [2], with Pseudomonas aeruginosa [3], with Pseudomonas aeruginosa [4], against Pseudomonas aeruginosa [5] and against Pseudomonas aeruginosa [6] was 32 mg/L (≈ 54.6 µM) in each case. The MIC with Pseudomonas aeruginosa [7], against Pseudomonas aeruginosa [8], in the experiment with Pseudomonas aeruginosa [9], against Pseudomonas aeruginosa [10], with Pseudomonas aeruginosa [11] and with Pseudomonas aeruginosa [12] was 32 mg/L (≈ 54.6 µM) in each case. In addition, the lowest concentration to inhibit growth in the experiment on Pseudomonas aeruginosa [13] (MIC) was 32 mg/L (≈ 54.6 µM).
With `CC(C)(O/N=C(\C(=O)N[C@@H]1C(=O)N2C(C(=O)[O-])=C(C[n+]3ccccc3)CS[C@H]12)c1csc(N)n1)C(=O)O` [CEFTAZIDIME], the MIC with Pseudomonas aeruginosa [1], with Pseudomonas aeruginosa [2], in the experiment on Pseudomonas aeruginosa [3], in the experiment with Pseudomonas aeruginosa [4], against Pseudomonas aeruginosa [5] and in the experiment with Pseudomonas aeruginosa [6] was 64 mg/L (≈ 117 µM) each time. Further, the minimal inhibitory concentration (MIC) with Pseudomonas aeruginosa [7], with Pseudomonas aeruginosa [8], against Pseudomonas aeruginosa [9], against Pseudomonas aeruginosa [10], against Pseudomonas aeruginosa [11] and in the experiment with Pseudomonas aeruginosa [12] was 64 mg/L (≈ 117 µM) in each case. This compound also gave an MIC in the experiment with Pseudomonas aeruginosa [13] of 64 mg/L (≈ 117 µM).
